# Measured values published in paper PMC12502564, “Evaluation of LLM-generated peptide as foundation template for discovery of effective encrypted AMPs against clinical superbugs” (Microbiology Spectrum, 2025).
# No end group written: not given here.
# Columns and labels:
# S. aureus ATCC25923 = assay type: cell-based, Staphylococcus aureus
# Procedure: (§1) The MIC of all peptides was determined using the microdilution broth method in a 96-well plate. Peptides were dissolved in the DMSO with an initial concentration of 12,800 µg mL^−1. And cells of eight strains were separately suspended in the MHB at a density of approximately 10^5 CFU mL^−1. In the first column of the 96-well plate, 16 µL of peptide and 184 µL of MHB were added to each well to achieve a final concentration of 1,024 µg mL^−1. One-hundred microliters of MHB was added to each of the remaining wells. Then the first column of liquid was mixed well and diluted to the 12th column using the twofold dilution method. One-hundred microliters of prepared bacterial solution was added to all wells, and the 96-well plate was incubated at 37°C for 18–24 h. The MIC was defined as the concentration of the peptide in the well just preceding the first well showing visible turbidity. All experiments were performed in triplicate to ensure reliability.
# MRSA 2210187 = assay type: cell-based, methicillin-resistant Staphylococcus aureus; conditions: 2210187
# Procedure: as §1
# [1] = tested on: all eight bacterial strains; assay type: cell-based, gram-positive and gram-negative bacteria; conditions: judged from MICs on eight strains
# Procedure: as §1
# MRSA = assay: Time-kill curve; assay type: cell-based, methicillin-resistant Staphylococcus aureus; conditions: ~10^5 CFU mL^−1 in MH broth
# Procedure: Bacteria in the logarithmic growth phase were diluted to approximately 10^5 CFU mL^−1 in MH broth and treated with peptides, polymyxin B, or vancomycin at final concentrations of 1/2 × MIC, 1 × MIC, 2 × MIC, and 4 × MIC. After the addition of the test compound, samples were taken at 0, 3, 6, 9, 12, and 24 h and serially diluted. Subsequently, 5 µL of the diluted samples were spread on agar plates and incubated at 37°C for 20 h. The bacterial concentration CFU mL^−1 at the corresponding time point of each sample was calculated based on the number of colonies on the agar plate, and the log10 (CFU mL^−1) was plotted against time (h).
# CRAB [2] = assay: ROS accumulation assay (DCFH-DA); assay type: cell-based, carbapenem-resistant Acinetobacter baumannii; conditions: 10 µM DCFH-DA, 2 h incubation
# Procedure: Bacteria in the logarithmic growth phase were prepared to OD600 = 0.5. Ten microliters of DCFH-DA was added to 190 µL of bacterial solution to a final concentration of 10 µM and incubated at 37°C for 30 min. After washing with PBS three times, 190 µL of probe-labeled bacterial cells were added to a 96-well plate, and 10 µL of the sample to be tested was added. After incubation for another 2 h, the fluorescence intensity was immediately measured using a microplate reader with an excitation wavelength of 488 nm and an emission wavelength of 525 nm. The antioxidant NAC (6 mM) was used as a control to neutralize the production of ROS.
# CRAB [3] = assay: Biofilm formation inhibition assay (crystal violet); assay type: cell-based, carbapenem-resistant Acinetobacter baumannii; conditions: 1/2 × MIC, 24 h, OD570
# Procedure: The crystal violet staining method ([66]) was used to determine the inhibitory activity of the compounds against the biofilm formation of CRAB. The steps were as follows: prepare a bacterial solution (10^6 CFU mL^−1), mix it with different final concentrations of the compound (1/2 × MIC, 1 × MIC, 2 × MIC, and 4 × MIC), and culture it for 24 h. After discarding the supernatant, wash with PBS, add anhydrous methanol to fix the biofilm, and then stain it with crystal violet for 60 min after drying. After washing, dissolve the biofilm with 33% glacial acetic acid, and measure OD570. Three parallel experiments were performed, and the biofilm formation inhibition rate was calculated by the following formula:
# (3) Biofilm formation inhibition rate (%)=(1−OD(sample)− OD(blank)/OD(negative)− OD(blank))×100%
# CRAB [4] = assay: Drug resistance assay, 20 passages; assay type: cell-based, carbapenem-resistant Acinetobacter baumannii; conditions: 20 passages at 0.5-fold MIC, n = 3
# Procedure: Resistance development assays were performed following previous report ([43]). CRAB was cultured overnight at 37°C at 160 rpm in LB. In wells of a 96-well polypropylene flat-bottom plate, 5 µL of the overnight bacterial culture (10^7 CFU mL^−1) was added to 100 µL of peptides/antibiotic solutions (with final concentrations of 0.25 to 512 µg mL^−1) in MHB. Plates were incubated for 18 to 20 h at 37°C. The MIC, the lowest concentration of peptides/antibiotic that caused lack of visible bacterial growth, was determined for each bacterial species. Thereafter, 5 µL of the growth at the 0.5-fold MIC suspension (10^7 CFU mL^−1) was added to a fresh medium containing peptides/antibiotic, and these mixtures were incubated as described above. This was repeated for 20 passages. All experiments were performed in triplicate to ensure reliability.
sequence,measurement,setting,value
WLKRILKWIGNKLKW [PL-15],MIC,S. aureus ATCC25923,lower than 11 µg mL^−1
same,MIC,MRSA 2210187,2 µg/mL
same,antimicrobial spectrum,[1],broad-spectrum antimicrobial properties
same,time to eliminate MRSA,MRSA; 1/2 × MIC,≤ 6 h
same,time to complete bacterial eradication of MRSA,MRSA; 1 × MIC,≤ 6 h
same,time to full bacterial killing of MRSA,MRSA; 2 × MIC,≤ 3 h
same,time to full bacterial killing of MRSA,MRSA; 4 × MIC,≤ 3 h
same,ROS levels (DCF fluorescence),CRAB [2],concentration-dependent surge in ROS levels
same,biofilm formation inhibition,CRAB [3],moderate biofilm inhibition
same,MIC change after serial passaging,CRAB [4],within a twofold range
